Holding throughout (assay type): in vivo, human
For assay [1], the system named is participants with NT1. The assay is described as follows: Weekly cataplexy rate (WCR), Phase 2 NT1 trial. Here is the method: In some aspects of the methods described herein, the subject experiences a lower weekly cataplexy rate (WCR) after a treatment period compared to an untreated subject.
Cataplexy events are recorded for 14 consecutive days, starting after completion of washout of any anti-cataplexy medications and completed before Day-2 are considered for WCR study entry criterion. The total number of events/week (WCR) is calculated based on the number of cataplexy episodes averaged over 2 weeks, with at least 11 out of 14 days required to calculate the WCR.
Randomization was stratified by region. Starting on the morning of Day 1, the study drug was administered at approximately the same time each day for 8 or 12 weeks. If the participant wished to enroll in the long-term extension (LTE) study described in Example 3 but the LTE study had not started at the participant's site when the participant completed the Week 8 visit of the current study, the participant was allowed to continue in the current study for an additional 4 weeks.
The following doses were studied: • Compound A Dose Regimen 1:0.5 mg twice daily approximately 3 hours apart. • Compound A Dose Regimen 2:2 mg twice daily approximately 3 hours apart. • Compound A Dose Regimen 3:2 mg followed by 5 mg approximately 3 hours apart. • Compound A Dose Regimen 4:7 mg once daily (QD). • Other products required for the study: Matching placebo. […]

Assay [2] relates to participants with NT1. In words: Exit interviews after Week 8, Phase 2 NT1 trial. The following applies: most Compound A participants (n=21). As for the experimental part: Treatment Satisfaction Questionnaire for Medication (TSQM) and exit interview results from the study were evaluated to explore the impact of Compound A treatment on individuals with ICSD-3-confirmed NT1. Participants aged 18-70 years, with an Epworth Sleepiness Scale (ESS) score>12, and ≥4 partial/complete episodes of cataplexy/week were included in the trial. Participants were randomized to oral Compound A (0.5 mg twice 3 hours apart, 2 mg twice 3 hours apart, 2 mg then 5 mg 3 hours later, or 7 mg once daily), or placebo.
FIG. 19 and FIG. 20 show the results of exit interview outcomes at Week 8. […] Symptoms rated as most important to improve from baseline were EDS, cataplexy and impaired cognitive function (FIG. 19); most frequently cited impacts were work/school-related, social/leisure activities and general quality of life (FIG. 20). Changes in impacts were meaningful for Compound A-treated participants but not for placebo-treated participants. Overall, 94.7% of Compound A-treated participants (18/19 respondents) would be willing to recommend Compound A to others with narcolepsy.

The subject of assay [3] is participants with NT1. The assay is described as follows: Epworth Sleepiness Scale (ESS), Phase 2 NT1 trial. The text has this: In some aspects of the methods described herein, the subject experiences a lower Epworth Sleepiness Scale (ESS) total score after a treatment period compared to an untreated subject. The ESS is a subjective, self-administered scale that has been validated and used extensively as a key endpoint in studies in patients with narcolepsy to measure excessive daytime sleepiness (EDS). The ESS provides individuals with 8 different situations of daily life and asks them how likely they are to fall asleep in those situations (scored 0 to 3) and to try to imagine their likelihood of dozing even if they have not actually been in the identical situation; the scores are summed to give an overall score of 0 to 24. Higher scores indicate stronger subjective daytime sleepiness, and scores below 10 are considered to be within the reference range.
In certain aspects, the ESS is administered to assess sleep propensity on selected days indicated in the Schedule of Activities for the trial. Participants are asked to evaluate their subjective sleepiness based on recalling their most recent daily life experiences.
Randomization was stratified by region. Starting on the morning of Day 1, the study drug was administered at approximately the same time each day for 8 or 12 weeks. […]

In assay [4] the test system is participants with NT1. The assay is described as follows: Psychomotor vigilance test (PVT), sustained attention, Phase 2 NT1 trial. The text has this: The psychomotor vigilance test (PVT) is validated as a clinical outcome assessment of the ability to sustain attention. The PVT is a simple reaction performance task that aims to measure sustained attention with no learning effects over repeated administration. Differences between healthy controls and patients with narcolepsy have been found on PVT performance for reaction time, accuracy, and other measures. The PVT is sensitive to the effects of total sleep loss, partial sleep restriction, naps, and circadian variation in the healthy population. The duration of test is 10 minutes.
Outcomes of this study included a performance-based test of attention, the Psychomotor Vigilance Task (PVT; administered 1 and 7 hours post first dose, assessed at baseline and weeks 4 and 8) and two assessments of EDS: the Maintenance of Wakefulness Test (MWT; administered 2, 4, 6, and 8 hours post first dose, assessed over 4 sessions) and the Epworth Sleepiness Scale (ESS; using a 7-day recall period, assessed at baseline and weeks 2, 4, and 8). At baseline, associations between attention (as measured by number of PVT lapses), and objective (MWT) and subjective (ESS) measures of EDS were computed. For PVT and MWT, covariation in change throughout the day at end of study was investigated. The effect of different Compound A doses on wakefulness and attention were compared for each outcome. […]

This note sets out measurements from patent US20250375417A1, “OREXIN RECEPTOR 2 (OX2R) AGONIST FOR USE IN NARCOLEPSY TYPE 1 (NT1)” (TAKEDA PHARMACEUTICAL COMPANY LIMITED, priority 2024, published 2025).

Take `CCS(=O)(=O)N[C@@H]1[C@H](Cc2cccc(-c3cc(F)cc(F)c3)c2F)N(C(=O)C(C)(C)O)CC1(F)F` [Compound A, N-{(2S,3R)-4,4-difluoro-1-(2-hydroxy-2-methylpropanoyl)-2-[(2,3′,5′-trifluoro[1,1′-biphenyl]-3-yl)methyl]pyrrolidin-3-yl}ethanesulfonamide]: the “Change from baseline to Week 8 in WCR versus placebo” value in assay [1] (2 mg/2 mg and 2 mg/5 mg dose groups, adjusted for multiple comparisons) is listed as “statistically significant changes”. Also, the “Median WCR versus placebo” value in assay [1] (twice daily dosing (FIG. 5)) was “significantly reduced cataplexy events”. Besides, in assay [2], the “Exit interview outcome: change in narcolepsy symptoms and functional impacts” value is “meaningful improvements in narcolepsy symptoms and functional impacts”. For the same compound, in assay [3] (all dose groups, adjusted for multiple comparisons), the “Change from baseline to Week 8 in ESS versus placebo” value is “statistically significant changes”. Further, the “Participants with ESS≤10” value in assay [3] (weeks 4 and 8 (FIG. 4)) is reported as “Most participants achieved ESS total score≤10”. The “PVT lapses, least squares mean differences from placebo” value in assay [4] (all Compound A doses, 1 hour and 7 hours post-first dose (p<0.05)) is reported as “significant”. The “Attention (PVT lapses)” value in assay [4] (week 8, all doses (all p<0.05)) is on record as “improved attention across all doses”.
